# Experimental data: PubChem BioAssay AID248 (DTP/NCI, 2004)
# Where “and” joins values, the source holds several entries; their conditions need not be identical. Equal entries are not always repeated. Inconclusive results and toxic doses are left out.
# System: L1210 leukemia ip in BDF1 mice, survival T/C
# Assay: NCI In Vivo Anticancer Drug Screen. Data for tumor model L1210 Leukemia (intraperitoneal) in B6D2F1 (BDF1) mice
# Details: endpoint: mean survival time, higher = longer survival
# Method in brief: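 Tumor was transplanted into mice, which were then dosed with test compound or vehicle alone. Survival was recorded for each group, and the treated figure was expressed relative to the control figure.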
structure (smiles),measurement,setting,value
CC(=O)NC1=C(N2CC2)C(=O)C(NC(C)=O)=C(N2CC2)C1=O,T/C,"dose: 0.01 mg/kg/injection, schedule: Q01DX Z (ip), vehicle: alkali diluted with saline",96 % of control
same,T/C,"dose: 0.03 mg/kg/injection, schedule: Q01DX Z (ip), vehicle: alkali diluted with saline",96 % of control
same,T/C,"dose: 0.06 mg/kg/injection, schedule: Q01DX006 (iv), vehicle: saline",113 % of control
same,T/C,"dose: 0.06 mg/kg/injection, schedule: Q01DX Z (ip), vehicle: alkali diluted with saline",97 % of control and 105 % of control
same,T/C,"dose: 0.06 mg/kg/injection, schedule: Q01DX Z (ip), vehicle: saline",113 % of control
same,T/C,"dose: 0.12 mg/kg/injection, schedule: Q01DX Z (ip), vehicle: alkali diluted with saline",100 % of control and 102 % of control
same,T/C,"dose: 0.12 mg/kg/injection, schedule: Q01DX Z (oral), vehicle: carboxymethylcellulose (CMC)",97 % of control
same,T/C,"dose: 0.13 mg/kg/injection, schedule: Q01DX006 (iv), vehicle: saline",118 % of control
same,T/C,"dose: 0.24 mg/kg/injection, schedule: Q01DX Z (ip), vehicle: alkali diluted with saline",109 % of control
same,T/C,"dose: 0.25 mg/kg/injection, schedule: Q01DX006 (iv), vehicle: saline",108 % of control
same,T/C,"dose: 0.25 mg/kg/injection, schedule: Q01DX Z (im), vehicle: saline",121 % of control
same,T/C,"dose: 0.25 mg/kg/injection, schedule: Q01DX Z (ip), vehicle: saline",159 % of control
same,T/C,"dose: 0.25 mg/kg/injection, schedule: Q01DX Z (oral), vehicle: carboxymethylcellulose (CMC)",101 % of control
same,T/C,"dose: 0.25 mg/kg/injection, schedule: Q01DX Z (sc), vehicle: saline",102 % of control
same,T/C,"dose: 0.38 mg/kg/injection, schedule: Q03DX005 (oral), vehicle: saline",111 % of control
same,T/C,"dose: 0.38 mg/kg/injection, schedule: Q03DX006 (oral), vehicle: saline",106 % of control
same,T/C,"dose: 0.48 mg/kg/injection, schedule: Q01DX Z (ip), vehicle: alkali diluted with saline",97 % of control
same,T/C,"dose: 0.5 mg/kg/injection, schedule: Q01DX Z (ip), vehicle: saline",185 % of control and 201 % of control
same,T/C,"dose: 0.5 mg/kg/injection, schedule: Q01DX Z (oral), vehicle: carboxymethylcellulose (CMC)",100 % of control
same,T/C,"dose: 0.75 mg/kg/injection, schedule: Q03DX005 (oral), vehicle: saline",111 % of control
same,T/C,"dose: 0.75 mg/kg/injection, schedule: Q03DX006 (oral), vehicle: saline",109 % of control
same,T/C,"dose: 0.9 mg/kg/injection, schedule: Q01DX001 (oral), vehicle: saline",103 % of control and 104 % of control and 108 % of control
same,T/C,"dose: 0.9 mg/kg/injection, schedule: Q07DX002 (oral), vehicle: saline",108 % of control
same,T/C,"dose: 0.9 mg/kg/injection, schedule: Q07DX003 (oral), vehicle: saline",101 % of control
same,T/C,"dose: 0.96 mg/kg/injection, schedule: Q01DX Z (ip), vehicle: alkali diluted with saline",103 % of control
same,T/C,"dose: 0.96 mg/kg/injection, schedule: Q01DX Z (ip), vehicle: other",194 % of control
same,T/C,"dose: 1.0 mg/kg/injection, schedule: Q01DX006 (iv), vehicle: saline",170 % of control
same,T/C,"dose: 1.0 mg/kg/injection, schedule: Q01DX Z (ip), vehicle: carboxymethylcellulose (CMC)",155 % of control
same,T/C,"dose: 1.0 mg/kg/injection, schedule: Q01DX Z (ip), vehicle: saline",164 % of control and 220 % of control
same,T/C,"dose: 1.0 mg/kg/injection, schedule: Q01DX Z (oral), vehicle: carboxymethylcellulose (CMC)",109 % of control
same,T/C,"dose: 1.0 mg/kg/injection, schedule: Q01DX Z (oral), vehicle: saline",121 % of control
same,T/C,"dose: 1.0 mg/kg/injection, schedule: Q01DX Z (sc), vehicle: saline",161 % of control
same,T/C,"dose: 1.0 mg/kg/injection, schedule: Q#A X Z (oral), vehicle: saline",115 % of control
same,T/C,"dose: 1.25 mg/kg/injection, schedule: Q01DX Z (ip), vehicle: carboxymethylcellulose (CMC)",164 % of control
same,T/C,"dose: 1.5 mg/kg/injection, schedule: Q01DX Z (ip), vehicle: saline",163 % of control
same,T/C,"dose: 1.5 mg/kg/injection, schedule: Q03DX005 (oral), vehicle: saline",108 % of control
same,T/C,"dose: 1.5 mg/kg/injection, schedule: Q03DX006 (oral), vehicle: saline",124 % of control and 91 % of control
same,T/C,"dose: 1.75 mg/kg/injection, schedule: Q01DX001 (oral), vehicle: saline",104 % of control and 111 % of control and 117 % of control
same,T/C,"dose: 1.75 mg/kg/injection, schedule: Q07DX002 (oral), vehicle: saline",108 % of control
same,T/C,"dose: 1.75 mg/kg/injection, schedule: Q07DX003 (oral), vehicle: saline",117 % of control
same,T/C,"dose: 1.9 mg/kg/injection, schedule: Q01DX Z (ip), vehicle: alkali diluted with saline",101 % of control
same,T/C,"dose: 1.9 mg/kg/injection, schedule: Q01DX Z (ip), vehicle: other",122 % of control
same,T/C,"dose: 2.0 mg/kg/injection, schedule: Q01DX006 (iv), vehicle: saline",168 % of control and 174 % of control
same,T/C,"dose: 2.0 mg/kg/injection, schedule: Q01DX Z (im), vehicle: saline",113 % of control
same,T/C,"dose: 2.0 mg/kg/injection, schedule: Q01DX Z (ip), vehicle: saline",116 % of control and 117 % of control
same,T/C,"dose: 2.0 mg/kg/injection, schedule: Q01DX Z (oral), vehicle: saline",118 % of control
same,T/C,"dose: 2.2 mg/kg/injection, schedule: Q01DX Z (ip), vehicle: carboxymethylcellulose (CMC)",103 % of control and 114 % of control
same,T/C,"dose: 2.5 mg/kg/injection, schedule: Q01DX Z (ip), vehicle: carboxymethylcellulose (CMC)",117 % of control
same,T/C,"dose: 3.0 mg/kg/injection, schedule: Q01DX Z (ip), vehicle: saline",106 % of control
same,T/C,"dose: 3.0 mg/kg/injection, schedule: Q03DX006 (oral), vehicle: saline",94 % of control and 114 % of control
same,T/C,"dose: 3.3 mg/kg/injection, schedule: Q01DX Z (ip), vehicle: carboxymethylcellulose (CMC)",101 % of control and 90 % of control
same,T/C,"dose: 3.5 mg/kg/injection, schedule: Q01DX001 (oral), vehicle: saline",101 % of control and 105 % of control and 106 % of control
same,T/C,"dose: 3.5 mg/kg/injection, schedule: Q07DX002 (oral), vehicle: saline",97 % of control
same,T/C,"dose: 3.5 mg/kg/injection, schedule: Q07DX003 (oral), vehicle: saline",109 % of control
same,T/C,"dose: 4.0 mg/kg/injection, schedule: Q01DX006 (iv), vehicle: saline",88 % of control
same,T/C,"dose: 4.0 mg/kg/injection, schedule: Q01DX Z (sc), vehicle: saline",96 % of control
same,T/C,"dose: 4.9 mg/kg/injection, schedule: Q01DX Z (ip), vehicle: carboxymethylcellulose (CMC)",90 % of control
same,T/C,"dose: 6.0 mg/kg/injection, schedule: Q03DX005 (oral), vehicle: saline",103 % of control
same,T/C,"dose: 6.0 mg/kg/injection, schedule: Q03DX006 (oral), vehicle: saline",124 % of control
same,T/C,"dose: 7.0 mg/kg/injection, schedule: Q01DX001 (oral), vehicle: saline",106 % of control and 120 % of control
same,T/C,"dose: 7.0 mg/kg/injection, schedule: Q07DX003 (oral), vehicle: saline",117 % of control
same,T/C,"dose: 8.0 mg/kg/injection, schedule: Q01DX Z (oral), vehicle: saline",156 % of control and 175 % of control
same,T/C,"dose: 8.0 mg/kg/injection, schedule: Q#A X Z (oral), vehicle: saline",152 % of control
same,T/C,"dose: 16.0 mg/kg/injection, schedule: Q01DX Z (oral), vehicle: saline",122 % of control
same,T/C,"dose: 28.0 mg/kg/injection, schedule: Q07DX003 (oral), vehicle: saline",153 % of control
same,T/C,"dose: 32.0 mg/kg/injection, schedule: Q01DX Z (oral), vehicle: saline",95 % of control
same,T/C,"dose: 112.0 mg/kg/injection, schedule: Q07DX003 (oral), vehicle: saline",111 % of control
same,T/C,"dose: 224.0 mg/kg/injection, schedule: Q01DX001 (oral), vehicle: saline",120 % of control
same,T/C,"dose: 448.0 mg/kg/injection, schedule: Q01DX001 (oral), vehicle: saline",108 % of control
same,T/C,"dose: 600.0 mg/kg/injection, schedule: Q01DX001 (oral), vehicle: saline",107 % of control
same,T/C,"dose: 800.0 mg/kg/injection, schedule: Q01DX001 (oral), vehicle: saline",113 % of control
same,T/C,"dose: 1000.0 mg/kg/injection, schedule: Q01DX001 (oral), vehicle: saline",110 % of control
FC(F)(F)c1ccc2c(c1)N(CCCCl)c1ccccc1S2,T/C,"dose: 50.0 mg/kg/injection, schedule: Q04DX003 (ip), vehicle: Klucel (hydroxypropylcellulose) (HPC)",103 % of control
same,T/C,"dose: 100.0 mg/kg/injection, schedule: Q04DX003 (ip), vehicle: Klucel (hydroxypropylcellulose) (HPC)",118 % of control
same,T/C,"dose: 200.0 mg/kg/injection, schedule: Q04DX003 (ip), vehicle: Klucel (hydroxypropylcellulose) (HPC)",105 % of control
same,T/C,"dose: 400.0 mg/kg/injection, schedule: Q04DX003 (ip), vehicle: Klucel (hydroxypropylcellulose) (HPC)",115 % of control
